Values after ≈ are worked out from the molar mass of the structure shown.
Experiments:
Human betaherpesvirus 5 [1] = format: functional, organism-based; conditions: Human betaherpesvirus 5, Davis, HEL
[2] = test system: Moloney murine sarcoma virus; assay: Antiviral activity against MSV in mouse C3H cells assessed as inhibition of virus-induced transformation after 6 days; format: functional, organism-based; conditions: 144 h
Human alphaherpesvirus 2 [3] = format: functional, organism-based; conditions: Human alphaherpesvirus 2, Lyons, HEL
Human adenovirus 2 = format: functional, organism-based; conditions: Human mastadenovirus C, HEL
[4] = Cytotoxicity against Huh5-2 cells assessed as reduction of cell growth; format: cell-based, Huh-5-2; conditions: human
[5] = Cytotoxicity against E6SM cells assessed as alteration in cell morphology; format: cell-based; conditions: human
Human alphaherpesvirus 2 [6] = format: functional, organism-based; conditions: Human alphaherpesvirus 2, G, HEL
[7] = Cytotoxicity against HSB2 cells assessed as alteration in cell morphology; format: cell-based, CCRF-HSB-2; conditions: human, read-out: Activity
Human alphaherpesvirus 3 [8] = assay: Antiviral activity against VZV OKA in HEL cells assessed as inhibition of plaque formation; format: functional, organism-based; conditions: Human alphaherpesvirus 3, OKA
[9] = Cytotoxicity against HEL cells assessed as alteration in cell morphology after 3 days; format: cell-based; conditions: human, read-out: Activity
[10] = test system: Human immunodeficiency virus 2; format: functional, organism-based; conditions: Human immunodeficiency virus 2, ROD, CCRF-CEM
Human alphaherpesvirus 1 [11] = format: functional, organism-based; conditions: Human alphaherpesvirus 1, KOS, HEL
Human alphaherpesvirus 1 [12] = format: functional, organism-based; conditions: Human alphaherpesvirus 1, KOS, HEL; remark: listed apart in the source
[13] = Cytotoxicity against HeLa cells assessed as alteration in cell morphology; format: cell-based; conditions: human
Sindbis virus = format: functional, organism-based; conditions: Vero
Yellow fever virus = format: functional, organism-based; conditions: Vero
[14] = Cytotoxicity against C3H cells assessed as alteration in cell morphology; format: cell-based; conditions: mouse
[15] = Cytotoxicity against Vero cells assessed as alteration in cell morphology; format: cell-based; conditions: chlorocebus sabaeus
Human alphaherpesvirus 3 [16] = assay: Antiviral activity against TK- VZV 07-1 in HEL cells assessed as inhibition of plaque formation; format: functional, organism-based; conditions: Human alphaherpesvirus 3, 07-1, HEL
Vaccinia virus = format: functional, organism-based; conditions: Orthopoxvirus vaccinia, Lederle, HEL
[17] = test system: Vesicular stomatitis virus; assay: microbe, parasite or virus in culture; conditions: HeLa
[18] = Cytotoxicity against CEM cells assessed as reduction of cell growth; format: cell-based; conditions: human, CEM (CCRF-CEM) cells
Coxsackievirus B4 [19] = format: functional, organism-based; conditions: Enterovirus B, Vero
Punta Toro virus = format: functional, organism-based; conditions: Vero
Human betaherpesvirus 5 [20] = format: functional, organism-based; conditions: Human betaherpesvirus 5, AD169, HEL
Coxsackievirus B4 [21] = format: functional, organism-based; conditions: Enterovirus B, HeLa
[22] = test system: Vesicular stomatitis virus; assay: microbe, parasite or virus in culture; conditions: E6SM
[23] = test system: Human immunodeficiency virus 1; format: functional, organism-based; conditions: Human immunodeficiency virus 1, 3B, CCRF-CEM
HEL = assay: Cytotoxicity against HEL cells assessed as inhibition of cell growth after 3 days; format: cell-based; conditions: human, 72 h
Human respirovirus 3 = format: functional, organism-based; conditions: Human respirovirus 3, Vero
[24] = test system: Respiratory syncytial virus; format: functional, organism-based; conditions: human respiratory syncytial virus, Long, HeLa
[25] = test system: Mammalian orthoreovirus 1; format: functional, organism-based; conditions: Mammalian orthoreovirus 1, Vero
Hepatitis C virus = assay: Antiviral activity against HCV in Huh5-2 cells assessed as inhibition of HCV subgenomic replicon replication; format: functional, organism-based, Hepacivirus hominis; conditions: Huh-5-2

| Structure (SMILES) | EC50 (Human betaherpesvirus 5 [1]) [µg/mL] | MCC [5] [µg/mL] | EC50 (Human alphaherpesvirus 2 [6]) [µg/mL] | EC50 (Human alphaherpesvirus 3 [8]) [µg/mL] | MCC at 72 h [9] [µg/mL] | EC50 (Human alphaherpesvirus 1 [11]) [µg/mL] | EC50 (Human alphaherpesvirus 1 [12]) [µg/mL] | MCC [13] [µg/mL] | EC50 (Sindbis virus) [µg/mL] | MCC [15] [µg/mL] | EC50 (Human alphaherpesvirus 3 [16]) [µg/mL] | EC50 [17] [µg/mL] | EC50 (Coxsackievirus B4 [19]) [µg/mL] | EC50 (Punta Toro virus) [µg/mL] | EC50 (Coxsackievirus B4 [21]) [µg/mL] | EC50 [22] [µg/mL] | Activity (HEL) | EC50 (Human respirovirus 3) [µg/mL] | EC50 [24] [µg/mL] | EC50 [25] [µg/mL] | further results |
| --- | --- | --- | --- | --- | --- | --- | --- | --- | --- | --- | --- | --- | --- | --- | --- | --- | --- | --- | --- | --- | --- |
| NC(N)=NC(=O)NC[C@@H](CO)OCP(=O)(O)O | 36.8 (≈ 136 µM) | > 100 | > 50 | > 50 | > 50 | > 50 | > 50 | > 100 | > 100 | > 100 | > 50 | > 100 | > 100 | > 100 | > 100 | > 100 | > 50 µg/mL | > 100 | > 100 | > 100 | EC50 [2]: 68 µg/mL (≈ 252 µM); EC50 (Human alphaherpesvirus 2 [3]): > 50 µg/mL; EC50 (Human adenovirus 2): > 100 µg/mL; CC50 [4]: > 50 µg/mL; MCC [7]: > 200 µg/mL; EC50 [10]: > 100 µg/mL; EC50 (Yellow fever virus): > 100 µg/mL; MCC [14]: > 100 µg/mL; EC50 (Vaccinia virus): > 100 µg/mL; CC50 [18]: > 100 µg/mL; EC50 (Human betaherpesvirus 5 [20]): 35.5 µg/mL (≈ 131 µM); EC50 [23]: > 100 µg/mL |
| Nc1cnn(C[C@@H](CO)OCP(=O)(O)O)c(=O)n1 | 37.3 (≈ 133 µM) | > 400 | 31.5 (≈ 112 µM) | 38.2 (≈ 136 µM) | > 100 | 8.84 (≈ 31.6 µM) | 24.9 (≈ 88.9 µM) | > 400 | > 80 | 400 | 18.4 (≈ 65.7 µM) | > 400 | > 80 | > 80 | > 400 | > 400 | > 50 µg/mL | > 80 | > 400 | > 80 | EC50 [2]: 170 µg/mL (≈ 607 µM); EC50 (Human alphaherpesvirus 2 [3]): ≥ 43.4 µg/mL; EC50 (Human adenovirus 2): > 100 µg/mL; CC50 [4]: 111 µg/mL (≈ 396 µM); EC50 [10]: > 100 µg/mL; EC50 (Yellow fever virus): > 100 µg/mL; EC50 (Hepatitis C virus): 750 µg/mL (≈ 2680 µM); MCC [14]: 100 µg/mL; EC50 (Vaccinia virus): 63.1 µg/mL (≈ 225 µM); CC50 [18]: > 100 µg/mL; EC50 (Human betaherpesvirus 5 [20]): 30 µg/mL (≈ 107 µM); EC50 [23]: > 100 µg/mL |
| NC(=O)c1ncn([C@@H]2O[C@H](CO)[C@@H](O)[C@H]2O)n1 [RIBAVIRIN] |  | > 400 |  |  |  |  |  | > 400 | 240 (≈ 983 µM) | > 400 |  | 80 (≈ 328 µM) | 240 (≈ 983 µM) | 48 (≈ 197 µM) | 48 (≈ 197 µM) | 240 (≈ 983 µM) |  | 48 (≈ 197 µM) | 16 (≈ 65.5 µM) | 48 (≈ 197 µM) |  |
| NC(=NC(=O)NC[C@@H](CO)OCP(=O)(O)O)NC=O | 0.12 (≈ 0.402 µM) | > 100 | 6.58 (≈ 22.1 µM) | 0.042 (≈ 0.141 µM) | > 50 | 1.35 (≈ 4.53 µM) | 2.85 (≈ 9.56 µM) | > 100 | > 100 | > 100 | 0.046 (≈ 0.154 µM) | > 100 | > 100 | > 100 | > 100 | > 100 | > 50 µg/mL | > 100 | > 100 | > 100 | EC50 [2]: 130 µg/mL (≈ 436 µM); EC50 (Human alphaherpesvirus 2 [3]): 3.16 µg/mL (≈ 10.6 µM); EC50 (Human adenovirus 2): 17.8 µg/mL (≈ 59.7 µM); MCC [7]: ≥ 200 µg/mL; EC50 [10]: > 100 µg/mL; MCC [14]: > 100 µg/mL; EC50 (Vaccinia virus): 8.35 µg/mL (≈ 28 µM); CC50 [18]: ≥ 100 µg/mL; EC50 (Human betaherpesvirus 5 [20]): 0.1 µg/mL (≈ 0.335 µM); EC50 [23]: > 100 µg/mL |
| Nc1nc2c(ncn2COCCO)c(=O)[nH]1 [ACYCLOVIR] |  |  | 0.048 (≈ 0.213 µM) |  | > 100 | 0.015 (≈ 0.0666 µM) | > 20 |  |  |  |  |  |  |  |  |  | 173.5 µg/mL |  |  |  |  |
| O=c1[nH]c(=O)n([C@H]2C[C@H](O)[C@@H](CO)O2)cc1/C=C/Br [BRIVUDINE] |  | > 400 |  | 0.0069 (≈ 0.0207 µM) | > 100 | 0.0025 (≈ 0.0075 µM) | > 20 | > 400 | > 400 | > 400 | ≥ 122 | > 400 | > 400 | > 400 | > 400 | > 400 | >= 100 ug ml-1 | > 400 | > 400 | > 400 | EC50 [2]: > 100 µg/mL; EC50 [10]: > 100 µg/mL; MCC [14]: > 100 µg/mL; EC50 [23]: > 100 µg/mL |
| Nc1ccn(C[C@@H](CO)OCP(=O)(O)O)c(=O)n1.O.O [CIDOFOVIR] | 0.3 |  | 0.35 | 0.077 | > 100 | 0.09 | 0.38 |  |  |  | 0.073 |  |  |  |  |  | 60.9 µg/mL |  |  |  | EC50 (Human alphaherpesvirus 2 [3]): 0.43 µg/mL; EC50 (Human adenovirus 2): 1.53 µg/mL; MCC [7]: 37 µg/mL; EC50 (Vaccinia virus): 2.6 µg/mL; EC50 (Human betaherpesvirus 5 [20]): 0.2 µg/mL |

Source: ChEMBL document CHEMBL1142867, “Antiviral activity of triazine analogues of 1-(S)-[3-hydroxy-2-(phosphonomethoxy)propyl]cytosine (cidofovir) and related compounds” (J Med Chem, 2007)
